Experimental data as given in patent US20260176253A1 (priority 2021, published 2026).

Tests used:
[1] = system: rat cortical neurons; assay: Neurite outgrowth in primary neuronal cultures assay; format: cell-based; set-up: key: A: Statistically significant mean increase as a percent of DMSO control at 10 μM or less; B: No statistically significant mean increase as a percent of DMSO control at 10 μM or less; details: 72h, vs DMSO control, 10 μM or less
Description: Neurite Outgrowth Assay. Neurite Outgrowth in Primary Neuronal Cultures Assay. Changes in the pattern of neurite outgrowth have been implicated in psychiatric and neurodegenerative disorders as well as traumatic injuries. The discovery of new compounds that can positively affect neuritogenesis are important for developing new therapeutics for neurological diseases. Measurement of neurite outgrowth of rat cortical neurons using an automated image-based assay was used to determine the neuroplastic effects of the compounds of the present disclosure. The neurite outgrowth assay was performed at Neurofit SAS (France) as described below.
Pregnant Wistar rats (Janvier; France) were used for the study. They were delivered 6 days before their use. Upon arrival at Neurofit animal facility, they were housed one per cage and maintained in a room with controlled temperature (21-22° C.) and a reversed light-dark cycle (12 h/12h; lights on: 17:30-05:30; lights off: 05:30-17:30) with food and water available ad libitum.
Female Wistar rats of 17 days gestation were killed by cervical dislocation and the fetuses were removed from the uterus. Their brains were placed in ice-cold medium of Leibovitz (L15, Gibco, Fisher bioblock, France). Cortices were dissected and meninges were carefully removed. The cortical neurons were dissociated by trypsinization for 30 min at 37° C. (trypsin-EDTA, Gibco) in presence of 0.1 mg/ml DNAse I (Roche, France). The reaction was stopped by addition of Dulbecco's Modified Eagle Medium (DMEM; Gibco) with 10% of fetal bovine serum (FBS; Gibco). The suspension was triturated with a 10-ml pipette and using a needle syringe 21G and centrifuged at 350×g for 10 min at room temperature. The pellet of dissociated cells was resuspended in a medium consisting of Neurobasal (Gibco) supplemented with 2% B27 supplement (Gibco), 0.5 mM L-Glutamine (Gibco), an antibiotic-antimicotic mixture. Viable cells were counted in a Neubauer cytometer using the trypan blue exclusion test (Sigma). Cells were seeded at a density of 10000 cells per well in 96-well plate (Costar) precoated with poly-L-lysine. Test compound at different concentrations were added to the cultures. Donepezil (positive control) was tested at 250 nM.
After 72h (3 days) of plating, cultures were fixed with paraformaldehyde in PBS (4%, Sigma) for 30 min at 4° C. Then, cells were successively permeabilized with 0.1% Triton X100 for 30 min, saturated with PBS containing 3% of BSA and were incubated 1 h with anti-beta III tubulin antibody (Sigma) at 1/10 000 in PBS containing 0.5% of BSA. Cells were washed three times with PBS containing 0.5% of BSA, and they were incubated 1 h with goat anti-mouse antibody coupled with AF488 (Invitrogen A11001) diluted at 1/1000 in PBS containing 0.5% of BSA. Finally, nuclei were staining with DAPI 1 mg/ml at 1/1000 in PBS containing 0.5% of BSA. After rinsing with PBS, the plate was filmed and neurite networks were examined and analyzed using High-Content Screening (CellInsight, Thermo Scientific). The average number of neurites per neuron and the average total length of neurites per neuron were the main parameters analyzed. Analysis of data was performed using analysis of variance (ANOVA). The Fisher's Protected Least Significant Difference test was used for multiple comparisons. A p value ≤0.05 was considered significant. The software used is StatView 5.0 from SAS Institut.

[2] = biological target: T1, 5-HT2A (Homo sapiens, UniProt P28223); assay: Serotonin 5-HT2A in vitro radioligand binding competition assay ([3H]-DOI); set-up: purchased Epics Therapeutics S. A. (Belgium), contract assay FAST-0505B; host or cells: membrane extracts; details: [3H]-DOI competition, membrane extracts; read-out: 5HT2A R[…] ACTIVITY
T1 sequence (P28223 whole entry): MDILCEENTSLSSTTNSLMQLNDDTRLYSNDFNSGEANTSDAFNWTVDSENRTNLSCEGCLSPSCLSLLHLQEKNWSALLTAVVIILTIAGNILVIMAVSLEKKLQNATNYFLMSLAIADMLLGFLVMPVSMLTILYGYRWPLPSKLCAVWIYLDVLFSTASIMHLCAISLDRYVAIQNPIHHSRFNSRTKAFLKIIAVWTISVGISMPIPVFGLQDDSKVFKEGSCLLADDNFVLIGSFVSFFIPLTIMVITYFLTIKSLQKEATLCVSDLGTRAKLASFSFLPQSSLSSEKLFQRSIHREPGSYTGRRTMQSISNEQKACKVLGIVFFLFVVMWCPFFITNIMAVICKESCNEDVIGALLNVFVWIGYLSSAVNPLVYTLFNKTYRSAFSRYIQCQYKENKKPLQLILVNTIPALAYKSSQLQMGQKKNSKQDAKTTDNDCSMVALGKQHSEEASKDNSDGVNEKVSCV
Description: Serotonin 5-HT2AIn Vitro Radioligand Binding Competition Assay. The 5-HT2A radioligand binding competition assay was performed at Epics Therapeutics S. A. (Belgium, FAST-0505B) using conventional methods. Briefly, competition binding is performed in duplicate in the wells of a 96 well plate (Master Block, Greiner, 786201) containing binding buffer (optimized for each receptor), membrane extracts (amount of protein/well optimized for each receptor), radiotracer [3H]-DOI (final concentration optimized for each receptor) and test compound. Nonspecific binding was determined by co-incubation with 200-fold excess of cold competitor. The samples were incubated in a final volume of 0.1 ml at a temperature and for a duration optimized for each receptor and then filtered over filter plates. Filters were washed six times with 0.5 ml of ice-cold washing buffer (optimized for each receptor) and 50 µl of Microscint 20 (Packard) were added in each well. The plates were incubated 15 min on an orbital shaker and then counted with a TopCount™ for 1 min/well.

[3] = biological target: T1, 5-HT2A; assay: Serotonin 5-HT2A in vitro cellular IPOne antagonism assay (HTRF); format: cell-based; set-up: host or cells: CHO-K1; details: CHO-K1 cells, reference agonist a-Me-5HT
Description: (§1) Serotonin 5-HT2AIn Vitro Cellular IPOne Antagonism Assay. The 5-HT2AIPOne HTRF assay was performed at Epics Therapeutics S. A. (Belgium, FAST-0505I) in antagonism mode using conventional methods. Briefly, CHO—K1 cells expressing human recombinant 5-HT2A receptor grown to mid-log phase in culture media without antibiotics were detached with PBS-EDTA, centrifuged, and resuspended in medium without antibiotics buffer. 20,000 cells were distributed in a 96 well plate and incubated overnight at 37° C. with 5% Co2.
For antagonist testing, a reference agonist a-Me-5HT was added and fluorescence signal monitored for several minutes, followed by addition of 20 μl of assay buffer plus 20 μl of test compound or reference antagonist ketanserin, in each well. The plate was incubated for 60 min. at 37° C. with 5% CO2.
(§2) After addition of the lysis buffer containing IP1-d2 and anti-IP1 cryptate detection reagents, plates were incubated 1-hour at room temperature, and fluorescence ratios were measured according to the manufacturer specification, with the HTRF kit.

[4] = biological target: T1, 5-HT2A; assay: Serotonin 5-HT2A in vitro cellular IPOne agonism assay (HTRF); format: cell-based; set-up: host or cells: CHO-K1; details: CHO-K1 cells, 60 min
Description: as §1, with “Agonism” for “Antagonism”, “FAST-0505I)” for “FAST-0505I) in antagonism mode”
For agonist testing, the medium was removed and 20 μl of assay buffer plus 20 μl of test compound or reference agonist were added in each well. The plate was incubated for 60 min. at 37° C. with 5% CO2.
as §2

Compound	INCREASE IN NEURITE BRANCHING [1]	INCREASE IN NEURITE LENGTH [1]	INCREASE IN NEURITE NUMBER [1]	IC50 [2] [nM]	IC50 [3] [nM]	EC50 [4] [nM]
FC(F)(F)c1cccc2[nH]c3c(c12)CC1CCCN1CC3 (centres unmarked) [Compound 28, 11-(trifluoromethyl)-1,2,3,5,6,7,12,12a-octahydropyrrolo[1′,2′:1,7]azepino[4,5-b]indole]	A	A	A	101 to 1000	10 to 100	1000 to 10000
Cn1c2c(c3ccccc31)CC1CCCN1CC2 (centres unmarked) [Compound 6, 7-methyl-1,2,3,5,6,7,12,12a-octahydropyrrolo[1′,2′:1,7]azepino[4,5-b]indole]	B	A	B	101 to 1000	101 to 1000	> 10000
c1ccc2c3c([nH]c2c1)CC1CCCN1CC3 (centres unmarked) [Compound 4, 1,2,3,5,6,11,12,12a-octahydropyrrolo[1′,2′;1,2]azepino[4,5-b]indole]	A	A	A	101 to 1000	101 to 1000	101 to 1000
Cn1c2c(c3ccccc31)CCN1CCCC1C2 (centres unmarked) [Compound 3, 11-methyl-1,2,3,5,6,11,12,12a-octahydropyrrolo[1′,2′:1,2]azepino[4,5-b]indole]	B	A	B	101 to 1000	101 to 1000	1000 to 10000
COc1cccc2[nH]c3c(c12)C[C@@H]1CCCN1CC3 [Compound 27, (S)-11-methoxy-1,2,3,5,6,7,12,12a-octahydropyrrolo[1′,2′:1,7]azepino[4,5-b]indole]	A	A	A	10 to 100	10 to 100	10 to 100
c1ccc2c3c([nH]c2c1)CCN1CCCC1C3 (centres unmarked) [Compound 7, 1,2,3,5,6,7,12,12a-octahydropyrrolo[1′,2′:1,7]azepino[4,5-b]indole]	A	A	A	101 to 1000	101 to 1000	1000 to 10000
c1ccc2c3c([nH]c2c1)CCN1CCC[C@@H]1C3 [Compound 22, (R)-1,2,3,5,6,7,12,12a-octahydropyrrolo[1′,2′:1,7]azepino[4,5-b]indole]	A	A	A	1000 to 10000	101 to 1000	101 to 1000
COc1ccc2c3c([nH]c2c1)C[C@H]1CCCN1CC3 [Compound 18, (R)-9-methoxy-1,2,3,5,6,11,12,12a-octahydropyrrolo[1′,2′:1,2]azepino[4,5-b]indole]	A	A	A	> 10000	101 to 1000	> 10000
COc1cccc2[nH]c3c(c12)CC1CCCN1CC3 (centres unmarked) [Compound 5, 11-methoxy-1,2,3,5,6,7,12,12a-octahydropyrrolo[1′,2′:1,7]azepino[4,5-b]indole]	B	A	B	1000 to 10000	–	1000 to 10000
c1ccc2c3c([nH]c2c1)CCN1CCC[C@H]1C3 [Compound 23, (S)-1,2,3,5,6,7,12,12a-octahydropyrrolo[1′,2′:1,7]azepino[4,5-b]indole]	A	A	A	101 to 1000	10 to 100	> 10000
COc1cccc2[nH]c3c(c12)C[C@H]1CCCN1CC3 [Compound 26, (R)-11-methoxy-1,2,3,5,6,7,12,12a-octahydropyrrolo[1′,2′:1,7]azepino[4,5-b]indole]	A	A	A	101 to 1000	< 10	10 to 100
FC(F)(F)c1cccc2[nH]c3c(c12)CCN1CCCC1C3 (centres unmarked) [Compound 21, 7-(trifluoromethyl)-1,2,3,5,6,11,12,12a-octahydropyrrolo[1′,2′:1,2]azepino[4,5-b]indole]	A	A	B	1000 to 10000	101 to 1000	> 10000
FC(F)(F)c1ccc2c3c([nH]c2c1)CC1CCCN1CC3 (centres unmarked) [Compound 12, 9-(trifluoromethyl)-1,2,3,5,6,11,12,12a-octahydropyrrolo[1′,2′:1,2]azepino[4,5-b]indole]	A	A	B	1000 to 10000	–	> 10000
COc1ccc2c3c([nH]c2c1)CCN1CCCC1C3 (centres unmarked) [Compound 1, 9-methoxy-1,2,3,5,6,7,12,12a-octahydropyrrolo[1′,2′:1,7]azepino[4,5-b]indole]	B	B	B	1000 to 10000	–	> 10000
COc1ccc2c3c([nH]c2c1)CC1CCCN1CC3 (centres unmarked) [Compound 2, 9-methoxy-1,2,3,5,6,11,12,12a-octahydropyrrolo[1′,2′:1,2]azepino[4,5-b]indole]	A	A	B	> 10000	–	> 10000
